One experiment concerns the target T1, Nck/N-WASP/3pY (Homo sapiens, UniProt P16333).
T1 construct: GST (followed by PreScission/HRV 3C site) (N, cleaved yes); made in house; host or cells: E. coli BL21(DE3)
As to the kind of experiment: Turbidity assay of Nck/N-WASP/3pY solution. The following applies: Nck droplets; text cites Figures S12 and S13. It counts as biochemical. The procedure: Next, we explored the intervention of Nck/N-WASP/3pY LLPS using pY peptides (Figure 3a). Three pY-containing peptides extracted from different Tir sequences were synthesized, namely, peptides Y474, Y751, and Y147 (Figure 3b).
Figure 3 pY peptides disrupt Nck/N-WASP/3pY LLPS. (a) Sequences of synthetic pY peptides. […] Nck: 20 μM; N-WASP: 10 μM; 3pY: 10 μM. Scale bars, 20 μm. (c) Peptide Y474 rapidly decreases the turbidity of the Nck/N-WASP/3pY solution in around 20 min. Nck: 20 μM, N-WASP: 10 μM, 3pY: 10 μM. […] Nck: 20 μM, N-WASP: 10 μM, 3pY: 10 μM.
(Cytiva, Hong Kong) using a gradient from 100 to 500 mM NaCl and Superdex 75 10/300 GL column (Cytiva, Hong Kong) in 25 mM HEPES, 150 mM NaCl, and 2 mM βME at pH 7.5.
Proteins were buffer-exchanged through a Hi-trap desalting column (Cytiva, Hong Kong) to the reaction buffer. For Cy5 labeling, the buffer was 0.1 M sodium bicarbonate buffer at pH 8.3. For FITC labeling, the buffer was 50 mM sodium borate at pH 8.5. […]
Fluorescence Recovery after Photobleaching (FRAP) Assay
Fluorescence recovery in vitro was conducted with a DMi8 microscope (Leica, Germany). […]
The fluorescence intensity was quantified and normalized by ImageJ.
Fluorescence recovery after photobleaching experiments inside mammalian cells was conducted with a two-photon imaging system using a custom-built upright microscope, based on a previously used imaging setup. […]

A further experiment has as its system Nck-SH2. As to the kind of experiment: Covalent reaction of p1 with wild-type Nck-SH2. The following applies: cell lysate in vitro and in the cytosol. It counts as binding. The procedure: Figure 5 Peptide p1 reacts with Lys 331. (a) MS/MS analysis of the conjugated site between p1 peptide and Nck-SH2 at Lys331. The corresponding mass data are shown in Figure S6 in the Supporting Information. […] Purified recombinant proteins were incubated with peptides in PBS buffer at 37 °C for 1 min (left) or 10 min (right). Molecular weight markers are shown in the middle. Red arrows indicate the covalent peptide–protein complex. […]
ether and purified by reverse-phase HPLC on a C18 column using acetonitrile/H2O (with 0.1% TFA) gradient on a reversed-phase C18 column, confirmed by MALDI-TOF MS analysis (Bruker, USA).
Pure peptides were lyophilized.
Crosslinking of Peptides with Nck in vitro
Purified peptides were incubated with the recombinantly expressed Nck protein (10 μM) in PBS buffer at 37 °C. After incubation, 5´ loading buffer was added into the solution and heated at 100 °C for 10 min. […]
The reaction mixture of Nck and p1 were digested with trypsin. Digested peptides were analyzed with an in-line EASY-spray source and nano-LC UltiMate 3000 high-performance liquid chromatography system (Thermo Fisher, USA) interfaced with an Elite mass spectrometer (Thermo Fisher, USA). The eluted peptides were detected by the Elite mass spectrometer, which was operated in data-dependent mode with one full MS scan at R = 60,000 (m/z = 200) mass, followed by MS/MS scans. […]

Non-standard residues stand in square brackets, D forms with d. Residues, ends and D or L forms follow the SMILES beside them. *: point of attachment. Biotin = O=C1N[C@H]2[C@H](CS[C@H]2CCCCC(=O)*)N1; Benzoyl(4-SO2F) = O=C(c1ccc(S(=O)(=O)F)cc1)*; pY = N[C@@H](Cc1ccc(OP(=O)(O)O)cc1)C(=O)O; Dap = NC[C@H](N)C(=O)O

In the case of `CC[C@H](C)[C@H](NC(=O)[C@H](Cc1c[nH]cn1)NC(=O)[C@H](CCC(=O)O)NC(=O)[C@H](CCC(=O)O)NC(=O)CCCC[C@@H]1SC[C@@H]2NC(=O)N[C@@H]21)C(=O)N[C@@H](Cc1ccc(OP(=O)(O)O)cc1)C(=O)N[C@@H](CNC(=O)c1ccc(S(=O)(=O)F)cc1)C(=O)N[C@@H](CCC(=O)O)C(=O)N[C@H](C(=O)N[C@@H](C)C(=O)N[C@@H](C)C(=O)N[C@@H](CC(=O)O)C(N)=O)C(C)C` [p1] (Biotin-EEHI[pY][Dap](Benzoyl(4-SO2F))EVAAD-NH2; N-terminus and C-terminus assumed), the “reduction of solution turbidity, p1 and Y474 compared” value at Nck/N-WASP/3pY is on record as “reduce the turbidity of the solution”. For the same compound, the “reactivity with Nck-SH2” value with Nck-SH2 was “high reactivity with Nck-SH2”.

Source of the values: publication PMC10755736, “Modulating Liquid–Liquid Phase Separation of Nck Adaptor Protein against Enteropathogenic Escherichia coli Infection” (ACS Central Science, 2023).
